From US20250099482A1, “TIP60 NEURO-EPIGENETIC MODULATORS” (Drexel University, priority 2023, published 2025)
Entries after “also recorded” stand apart in the source; their conditions may differ. Each block holds one compound with its values, some of them ahead of it.

Legend:
[1] = tested on: Drosophila Tip60 knockdown model; test: In vivo larval locomotor speed assay in Tip60-RNAi knockdown model; details: Tip60-RNAi larvae, compound in fly food, vs DMSO vehicle; for rescue of locomotor ability (larval speed): 10 nM to 100 μM
[2] = target: T1, Tip60 (Homo sapiens, UniProt Q92993); test: In vitro histone acetylation activity assay (Tip60); assay type: biochemical; details: for effect on Tip60's HAT activity (Histone H4 acetylation, fluorescence): 20 μM compound, vs Tip60+DMSO
T1 construct: purchased Active Motif 81975
Protocol: HAT assays were performed according to manufacturer's instructions in HAT Assay Kit (Active Motif 56100). Briefly, 375 ng Tip60 protein (Active motif: 81975) was incubated with 50 μM Histone H4 peptide, 50 μM Acetyl-CoA and indicated drug concentrations for 30 minutes at room temperature. After stopping the reaction and developing free sulfhydryl groups, […] was recorded at excitation 360-390 nm and emission 460-490 nm using Glomax fluorescence microplate reader. Specific enzyme activity (pmol/min/μg) was calculated by 1. Subtracting background fluorescence from that of assay samples to obtain arbitrary fluorescence units (AFU); and (2) Dividing the difference by the incubation time to obtain AFU/minute. 3. Dividing the AFU/minute by the slope of standard curve in AFU/pmol to obtain the rate in pmol/minute. 4. Dividing pmol/min by the amount of enzyme used to obtain final readings in pmol/minute/μg.

[3] = target: T2, GST-Tip60 protein (Homo sapiens, UniProt Q92993); test: In vitro surface plasma resonance (SPR) Tip60-compound binding; details: for Corrected Response: DMSO corrected
T2 construct: purchased Abcam ab2686960
Protocol: SPR protein-compound binding interactions were analyzed on Biacore 3000 biosensor (Global Cytiva Lifesciences) at 25° C. PBS-P (10 mM Phosphate, 150 mM NaCl, pH 7.4, 0.005% P-20) was used as the running buffer and a HAT-optimized binding buffer (50 mM HEPES, pH 7.4, 500 mM NaCl, 0.05% [v/v] Tween 20, 5 mM DTT, 10% [w/v] glycerol, 2% [v/v] DMSO) was used. A CM5 sensor chip was docked and derivatized by amine coupling to capture anti-GST antibody using freshly prepared 1:1 50 mM NHS (N-hydroxysuccinamide): 200 mM EDC (1-ethyl-3-(3-(dimethylamino) propyl) carbodiimide) followed by immobilization of GST-Tip60 protein (Abcam: ab2686960). Direct binding was determined by injecting ligands in duplicates at concentrations spanning 0.0078 μM to 50 μM with running buffer injections in between. DMSO corrections were performed as described previously. The corrected responses were transformed into % bound sites and plotted against the compound concentration. The concentration of Tip60 on the surface was estimated using [Tip60]=response (captured RU)/100*MW. To plot the % bound isotherm as a function of concentration, it is assumed that binding is 1:1 and the following equation is used: % A bound to B is 100AB/Bt=[Kd+At+Bt-SQRT((Kd+At+Bt)2−4*At*Bt)]/(2*Bt) where A=C and B=Tip60.

[4] = tested on: Drosophila Tip60 knockdown model; test: Larval line crossing / reaching the wall assay in Tip60-RNAi knockdown model; assay type: in vivo; details: 3rd instar Tip60-RNAi larvae, compound in fly food
[5] = tested on: Drosophila Alzheimer's disease model (APP); test: Larval line crossing assay in APP Alzheimer's disease model; assay type: in vivo; details: 3rd instar APP larvae, compound in fly food, range of concentrations

T1 sequence (Q92993 whole entry): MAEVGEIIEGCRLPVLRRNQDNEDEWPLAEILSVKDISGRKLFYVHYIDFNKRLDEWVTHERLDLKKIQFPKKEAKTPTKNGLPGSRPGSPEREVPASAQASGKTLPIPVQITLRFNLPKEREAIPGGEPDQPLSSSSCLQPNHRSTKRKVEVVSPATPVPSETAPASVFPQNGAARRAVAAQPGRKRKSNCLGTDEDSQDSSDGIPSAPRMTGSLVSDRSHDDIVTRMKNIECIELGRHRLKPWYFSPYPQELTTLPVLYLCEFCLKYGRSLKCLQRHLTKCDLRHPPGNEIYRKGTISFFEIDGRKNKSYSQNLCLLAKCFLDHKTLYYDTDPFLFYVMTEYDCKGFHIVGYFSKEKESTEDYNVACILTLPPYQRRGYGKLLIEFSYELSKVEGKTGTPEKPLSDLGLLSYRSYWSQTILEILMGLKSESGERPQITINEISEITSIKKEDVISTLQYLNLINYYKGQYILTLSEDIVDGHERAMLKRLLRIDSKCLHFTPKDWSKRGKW
T2 sequence (Q92993 whole entry): as above

Compound: O=C(Nc1ccc(Cl)c(C(F)(F)F)c1)c1ccccc1OC[C@H]1CCCS1(=O)=O [Compound C8, (R)-N-(4-chloro-3-(trifluoromethyl)phenyl)-2-((1,1-dioxidotetrahydrothiophen-2-yl)methoxy)benzamide]
rescue of locomotor defects (larval speed), performance as compared to CTB [1]: highest performers

effect on Tip60's HAT activity (Histone H4 acetylation, fluorescence) [2]: enhanced Tip60's HAT activity
Compound: COc1ccc(NCc2c(OCc3ccc(F)cc3)ccc3ccccc23)cc1Cl [Compound P9, 3-chloro-N-((2-((4-fluorobenzyl)oxy)naphthalen-1-yl)methyl)-4-methoxyaniline]

Compound: O=C(Nc1ccc(Cl)c(C(F)(F)F)c1)c1ccccc1OCC(=O)N1CCOCC1 [Compound C4, N-(4-chloro-3-(trifluoromethyl)phenyl)-2-(2-morpholino-2-oxoethoxy)benzamide]
rescue of locomotor defects (larval speed), performance as compared to CTB [1]: did not show an effect even at high concentrations

Compound: O=C(NCc1ccccc1Cn1cncn1)c1cn(Cc2ccccc2)c2ccccc12 [Compound P11, N-(2-((1H-1,2,4-triazol-1-yl)methyl)benzyl)-1-benzyl-1H-indole-3-carboxamide]
effect on Tip60's HAT activity (Histone H4 acetylation, fluorescence) [2]: enhanced Tip60's HAT activity

Compound: O=C(Nc1ccc(Cl)c(C(F)(F)F)c1)c1ccccc1OC[C@@H]1CCCS1(=O)=O [Compound C7, (S)-N-(4-chloro-3-(trifluoromethyl)phenyl)-2-((1,1-dioxidotetrahydrothiophen-2-yl)methoxy)benzamide]
rescue of locomotor defects (larval speed), performance as compared to CTB [1]: low-performing compounds

Compound: CCOCC[C@H](O)COc1ccccc1C(=O)Nc1ccc(Cl)c(C(F)(F)F)c1 [Compound C9, (S)-N-(4-chloro-3-(trifluoromethyl)phenyl)-2-(4-ethoxy-2-hydroxybutoxy)benzamide]
rescue of locomotor defects (larval speed), performance as compared to CTB [1]: low-performing compounds

Compound: O=C(Nc1ccc(Cl)c(C(F)(F)F)c1)c1ccccc1OC[C@H]1CCCO1 [Compound C3, (R)-N-(4-chloro-3-(trifluoromethyl)phenyl)-2-((tetrahydrofuran-2-yl)methoxy)benzamide]
rescue of locomotor defects (larval speed), performance as compared to CTB [1]: low-performing compounds

Compound: CCOc1ccccc1C(=O)Nc1ccc(Cl)c(C(F)(F)F)c1 [Compound C1, N-(4-chloro-3-(trifluoromethyl)phenyl)-2-ethoxybenzamide]
rescue of locomotor defects (larval speed), performance as compared to CTB [1]: low-performing compounds

Subtracted response ([3]; 0.0078 μM): 8.58
Corrected Response ([3]; 0.0078 μM): 0.127
Subtracted response ([3]; 0.023 μM): 7.78
Corrected Response ([3]; 0.023 μM): 0.1151
Subtracted response ([3]; 0.07 μM): 7.42
Corrected Response ([3]; 0.07 μM): 0.1098
Subtracted response ([3]; 0.21 μM): 7.24
Corrected Response ([3]; 0.21 μM): 0.1072
Subtracted response ([3]; 0.63 μM): 7.51
Corrected Response ([3]; 0.63 μM): 0.1111
Subtracted response ([3]; 1.85 μM): 8.17
Corrected Response ([3]; 1.85 μM): 0.1209
Subtracted response ([3]; 5.56 μM): 11.34
Corrected Response ([3]; 5.56 μM): 0.1678
Subtracted response ([3]; 17 μM): 22.255
Corrected Response ([3]; 17 μM): 0.3294
Subtracted response ([3]; 50 μM): 61.705
Corrected Response ([3]; 50 μM): 0.9132
Compound: Cc1cc(-c2ccccc2)cc(C(=O)NNS(=O)(=O)c2ccccc2)c1F [WM8014, N′-(4-fluoro-5-methyl-[1,1′-bipheny1]-3-carbonyl)benzenesulfonohydrazide]

Subtracted response ([3]; 0.0078 μM): 8.525
Corrected Response ([3]; 0.0078 μM): 0.1381
Subtracted response ([3]; 0.023 μM): 8.62
Corrected Response ([3]; 0.023 μM): 0.1396
Subtracted response ([3]; 0.07 μM): 8.545
Corrected Response ([3]; 0.07 μM): 0.1384
Subtracted response ([3]; 0.21 μM): 8.575
Corrected Response ([3]; 0.21 μM): 0.1389
Subtracted response ([3]; 0.63 μM): 8.99
Corrected Response ([3]; 0.63 μM): 0.1456
Subtracted response ([3]; 1.85 μM): 10.085
Corrected Response ([3]; 1.85 μM): 0.1634
Subtracted response ([3]; 5.56 μM): 13.355
Corrected Response ([3]; 5.56 μM): 0.2164
Subtracted response ([3]; 17 μM): 25.005
Corrected Response ([3]; 17 μM): 0.4051
Subtracted response ([3]; 50 μM): 66.335
Corrected Response ([3]; 50 μM): 1.075
Compound: CCCCCCCCCCCCCCCc1cccc(OCC)c1C(=O)Nc1ccc(Cl)c(C(F)(F)F)c1 [CTPB, N-(4-chloro-3-(trifluoromethyl)phenyl)-2-ethoxy-6-pentadecylbenzamide]
rescue of locomotor ability (larval speed) [1]: significant rescue for locomotor ability

Compound: CC(C)Oc1ccccc1C(=O)Nc1ccc(Cl)c(C(F)(F)F)c1 [Compound C6, N-(4-chloro-3-(trifluoromethyl)phenyl)-2-isopropoxybenzamide]
rescue of locomotor defects (larval speed), performance as compared to CTB [1]: low-performing compounds

Compound: CCOc1cccc(OCCN(C)C)c1C(=O)Nc1ccc(Cl)c(C(F)(F)F)c1 [Compound C5, N-(4-chloro-3-(trifluoromethyl)phenyl)-2-(2-(dimethylamino)ethoxy)-6-ethoxybenzamide]
rescue of locomotor defects (larval speed), performance as compared to CTB [1]: highest performers

Compound: CCOc1ccccc1C(=O)Nc1ccc(Cl)c(C(F)(F)F)c1 [CTB, N-(4-chloro-3-(trifluoromethyl)phenyl)-2-ethoxybenzamide]
% Bound sites ([3]; 0.0078 μM): 0.05241%
Subtracted response ([3]; 0.0078 μM): 8.34
Corrected Response ([3]; 0.0078 μM): 0.1326
% Bound sites ([3]; 0.023 μM): 0.04999%
Subtracted response ([3]; 0.023 μM): 7.955
Corrected Response ([3]; 0.023 μM): 0.1265
% Bound sites ([3]; 0.07 μM): 0.04921%
Subtracted response ([3]; 0.07 μM): 7.83
Corrected Response ([3]; 0.07 μM): 0.1245
% Bound sites ([3]; 0.21 μM): 0.04955%
Subtracted response ([3]; 0.21 μM): 7.885
Corrected Response ([3]; 0.21 μM): 0.1254
% Bound sites ([3]; 0.63 μM): 0.0526%
Subtracted response ([3]; 0.63 μM): 8.37
Corrected Response ([3]; 0.63 μM): 0.1331
% Bound sites ([3]; 1.85 μM): 0.05923%
Subtracted response ([3]; 1.85 μM): 9.425
Corrected Response ([3]; 1.85 μM): 0.1499
% Bound sites ([3]; 5.56 μM): 0.07928%
Subtracted response ([3]; 5.56 μM): 12.615
Corrected Response ([3]; 5.56 μM): 0.2006
% Bound sites ([3]; 17 μM): 0.1511%
Subtracted response ([3]; 17 μM): 24.05
Corrected Response ([3]; 17 μM): 0.3824
% Bound sites ([3]; 50 μM): 0.4056%
Subtracted response ([3]; 50 μM): 64.54
Corrected Response ([3]; 50 μM): 1.026
Kd ([3]; SPR, 25° C., read-out: KD (dissociation constant)): 28.6 µM
effect on Tip60's HAT activity ([2]; CTB, low micromolar concentrations): directly enhance Tip60's HAT activity
rescue of locomotor ability (larval speed) [1]: significant rescue for locomotor ability

Compound: CCOCC[C@@H](O)COc1ccccc1C(=O)Nc1ccc(Cl)c(C(F)(F)F)c1 [Compound C10, (R)-N-(4-chloro-3-(trifluoromethyl)phenyl)-2-(4-ethoxy-2-hydroxybutoxy)benzamide]
rescue of locomotor defects (larval speed), performance as compared to CTB [1]: low-performing compounds

Compound: O=C(Nc1ccc(Cl)c(C(F)(F)F)c1)c1ccccc1OC[C@@H]1CCCO1 [Compound C2, (S)-N-(4-chloro-3-(trifluoromethyl)phenyl)-2-((tetrahydrofuran-2-yl)methoxy)benzamide]
rescue of locomotor defects (larval speed), performance as compared to CTB [1]: highest performers

Compound: CCOc1ccccc1C(=O)Nc1cnn(Cc2ccc(C)cc2)c1 [Compound P6, 2-ethoxy-N-(1-(4-methylbenzyl)-1H-pyrazol-4-yl)benzamide]
rescue of Tip60 knockdown induced locomotion deficits (line crossing in 30 seconds) [4]: rescue locomotor speed defect; also recorded: inconsistent rescue results
effect on Tip60's HAT activity (Histone H4 acetylation, fluorescence) [2]: enhanced Tip60's HAT activity; also recorded: highest level of Tip60 HAT activation
rescue of AD associated locomotion defects (line crossing, reaching wall) [5]: high rescue overall, its action was inconsistent
